# Measurements as given in patent US8143254B2, “Methods for modulating ion channels” (Cornell Research Foundation, Inc., priority 2005, dated 2012).
# Legend:
# Kv2.1 Y380T = biological target: T1, Kv2.1 Y380T (Rattus norvegicus, UniProt P15387, Y380T/Y384T); assay: TEVC of oocytes expressing Y380T mutant Kv2.1; assay type: cell-based; details: Y380T mutation in Kv2.1
# T1 construct: expressed in transfected cells; host or cells: Xenopus laevis oocytes (cRNA from pGA1)
# Source text: Kv2.1 mutants were constructed using the QuickChange Multi Site-Directed Mutagenesis Kit (Stratagene, La Jolla, Calif.). Mutant Kv2.1 genes (in the pGA1 oocyte expression vector for oocyte expression) were sequenced in their entirety to confirm appropriate mutations and check for inadvertent mutations, and then subcloned into a wild-type pGA1 backbone. For oocyte expression, Kv3.4 was in pBF1, Kv4.2 was in pRAT. cRNA transcripts were produced from SacII-linearized (Kv2.1), Mlullinearized (Kv3.4) and Not1-linearized (Kv4.2) DNA templates using the T3 (Kv2.1), SP6 (Kv3.4) and T7 (Kv4.2) mMessage mMachine kits (Ambion, Austin, Tex.). cRNA was quantified by spectrophotometry and its size integrity verified by gel electophoresis. Defolliculated stage V and VI Xenopus laevis oocytes (purchased from Nasco, Grand Island, N.Y.) were injected with 5 ng of cRNA encoding Kv2.1, Kv3.4 or Kv4.2. […]
# Data analysis: Current-voltage relationships were obtained by measuring peak current during depolarizing pulses. Inhibition constants for DABCO blockers were calculated after generating a dose response curve by fitting with a logistic dose-response function y=A2+[A1−A2/1+(x/x0)^p], where A1 is the maximum response plateau, A2 is the minimum response plateau, x is drug concentrator, x0 is the IC50, and p the Hill slope. […]
# Δ1-28 Kv3.4 channels = biological target: T2, Δ1-28 Kv3.4 channels (Homo sapiens, UniProt Q03721); assay: TEVC current-voltage relationship of Δ1-28 Kv3.4 in Xenopus oocytes; assay type: cell-based; details: 1 mM
# T2 construct: expressed in transfected cells; host or cells: Xenopus oocytes (cRNA injection)
# T2 sequence (Q03721 29-635): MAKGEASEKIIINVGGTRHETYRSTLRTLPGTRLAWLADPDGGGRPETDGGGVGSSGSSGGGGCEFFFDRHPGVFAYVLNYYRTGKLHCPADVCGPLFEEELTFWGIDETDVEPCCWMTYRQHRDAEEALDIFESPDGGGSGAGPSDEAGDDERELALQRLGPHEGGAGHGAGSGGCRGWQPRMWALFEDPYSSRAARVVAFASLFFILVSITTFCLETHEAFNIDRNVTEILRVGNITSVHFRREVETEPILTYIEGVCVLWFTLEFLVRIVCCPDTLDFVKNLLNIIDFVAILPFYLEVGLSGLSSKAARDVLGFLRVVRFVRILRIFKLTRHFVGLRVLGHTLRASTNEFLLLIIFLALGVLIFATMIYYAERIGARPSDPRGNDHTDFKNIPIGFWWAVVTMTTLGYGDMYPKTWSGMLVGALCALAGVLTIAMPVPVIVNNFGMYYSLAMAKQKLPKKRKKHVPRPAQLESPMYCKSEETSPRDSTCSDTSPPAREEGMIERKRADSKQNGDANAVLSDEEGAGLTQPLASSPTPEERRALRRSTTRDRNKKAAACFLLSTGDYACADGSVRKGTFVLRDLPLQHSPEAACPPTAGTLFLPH
# Method: FIG. 6. Opening and block of Kv3.4 by two didabco compounds show voltage-dependency. Normalized I/V relationship for Δ1-28 Kv3.4 currents in oocytes in the absence (control) or presence as indicated of 1 mM JC279.3a or JC638.2a. Peak currents during 2 s pulses to voltages between −80 and +60 mV (protocol upper left insert) were recorded, before and after drug was washed in during successive 0.1 Hz, 2 s pulses from −80 to 0 mV until equilibrium block or opening was observed. Points are means from n=3-16 oocytes; error bars indicate SEM.
# (§1) Whole-cell two-electrode voltage-clamp (TEVC) recordings were performed on X laevis oocytes expressing cloned Kv2.1, Kv3.4 or Kv4.2 using a Warner OC-725C amplifier and pClamp9 (Axon Instruments, Foster City, Calif.) software. Oocytes were bathed in a small-volume Warner oocyte bath and viewed with a Fisher dissection microscope. Bath solution for whole-cell oocyte recordings was (in mM): 96 NaCl, 4 KCl, 0.7 MgCl2, 1 CaCl2, 10 HEPES (pH 7.4); whole-cell oocyte TEVC pipettes were of 0.2-2 M resistance when filled with 3 M KCl. Experiments were performed 24-48 hours after cRNA injection. For assessment of current-voltage relationships in the absence or presence of dabco derivatives, oocytes were held at −80 mV, stepped for 2 seconds at voltages between −80 mV and +60 mV in 20 mV steps (Kv2.1) or between −80 and +50 mV in 10 mV steps (Kv3.4), then held for 500 ms at −40 mV before returning to the holding potential. For assessment of block during wash-in of dabco derivatives at a single voltage, oocytes were held at −80 mV, and repetitively stepped to 0 mV for 2 s with an interpulse interval of 10 s or 60 s as indicated. A range of concentrations of dabco or dabco derivatives were washed in via the bath solution during repetitive single-voltage pulses (after an initial period of 5 pulses with control solution to ensure current stabilization) until equilibrium block was achieved, to establish dose-responses. Inhibited currents are compared to the current at the end of 5-pulse control period, thus some bar graphs show ‘control’ current values slightly less than 1, and with an error bar, to show how much currents deviate in the absence of drug. Washout was performed after the highest concentration of blocker was washed in. […]
# To investigate the mechanism of Kv channel block or opening by didabco compounds, the current-voltage relationship (I/V curve) of Δ1-28 Kv3.4 channels expressed in Xenopus oocytes was assessed using TEVC recording in the absence and presence of a didabco opener (JC279.3a, the 10 CH2-group didabco from FIG. 3) or a didabco blocker (JC638.2a, the para didabco from FIG. 4).
# oocytes = assay: Toxicity / nonspecific leak in oocytes during dose-response recording; assay type: cell-based, Xenopus laevis
# Method: as §1, with “indicated.” for “indicated. A range of concentrations of dabco or dabco derivatives were washed in via the bath solution during repetitive single-voltage pulses (after an initial period of 5 pulses with control solution to ensure current stabilization) until equilibrium block was achieved, to establish dose-responses. Inhibited currents are compared to the current at the end of 5-pulse control period, thus some bar graphs show ‘control’ current values slightly less than 1, and with an error bar, to show how much currents deviate in the absence of drug. Washout was performed after the highest concentration of blocker was washed in.”
smiles,measurement,setting,value
"c1cc(C[N+]23CCN(CC2)CC3)ccc1C[N+]12CCN(CC1)CC2 [JC638.2α, α,α′-[bis(4-aza-1-azoniabicyclo[2.2.2]octanyl)]p-xylene]",IC50,Kv2.1 Y380T,185 ± 41 µM
same,slope of dose response curve,Kv2.1 Y380T,1.3
same,block or opening of Δ1-28 Kv3.4,Δ1-28 Kv3.4 channels,blocker
same,voltage dependence of block or opening of Kv3.4,Δ1-28 Kv3.4 channels; attenuated at more depolarized voltages,voltage-dependent
C(CC[N+]12CCN(CC1)CC2)C[N+]12CCN(CC1)CC2 [TG26],toxicity to oocytes,oocytes; doses required to produce >50% block,toxic to the oocytes
"C(CCCC[N+]12CCN(CC1)CC2)CCC[N+]12CCN(CC1)CC2 [TG27, 1,8-[bis(4-aza-1-azoniabicyclo[2.2.2]octanyl)]octane]",concentration at which nonspecific leak began,oocytes; Kv3.4 dose response,above 1 mM
